Measured values reported in patent publication EP0477871A2, “Antiviral composition, containing guanine derivatives” (NIPPON KAYAKU KABUSHIKI KAISHA, priority 1990, dated 1992).
Where two headings read alike, the source gives them in different places. Each block holds one compound with its values, some of them ahead of it.

What was measured:
[1] = tested on: HSV-2 (VW-268); assay: Plaque inhibition (growth inhibition) in vero cell monolayer, HSV-2; format: cell-based, herpes simplex virus 2 (HSV-2); details: for IC50: Human alphaherpesvirus 2, Vero, compound alone, read-out: Concentraten at 50% plaque inhibition (IC50), single compound
Experimental: (§1) A monolayer culture of Cercopithecus sabaeus renal cells (vero cells) was prepared in Eagle's minimum medium containing 10% of newborn calf serum (MEM-CS10) by using a 24-well microplate. Then the medium was inoculated with 50 PFU/0.1 ml/well of herpes simplex virus 1 (HSV-1) or 2 (HSV-2). After effecting adsorption at 37°C for 1 hour, the cells in each well were washed with a phosphate buffer solution (PBS). Next, 0.5% methylcellulose-containing MEM-CS2 containing stepwise diluted OXT-G, ACV or C-OXT-G alone, a combination of OXT-G and ACV, a combination of OXT-G and C-OXT-G or a combination of ACV and C-OXT-G was laminated thereon and incubated at 37°C for 2 days. After discarding the laminated medium and fixing the cells with […], the cells were stained with a Crystal Purple solution and plaques formed in each well were counted. Then the ratio (%) of the plaque count at each concentration to that of the control lot, to which no chemical was added, was determined to thereby give the 50% plaque inhibition concentration (IC₅₀). Thus the inhibitory rate (%) against the concentration of each compound was calculated.

[2] = tested on: HSV-1 (VR-3); assay: Plaque inhibition (growth inhibition) in vero cell monolayer, HSV-1; format: cell-based, herpes simplex virus 1 (HSV-1); details: for IC50: Human alphaherpesvirus 1, Vero, compound alone, read-out: Concentraten at 50% plaque inhibition (IC50), single compound
Experimental: as §1

SMILES: Nc1nc2c(ncn2COCCO)c(=O)[nH]1 [ACV, 9-(2-hydroxyethoxymethyl)guanine, reference compound]
ACV inhibitory rate (single compound at the same concn., theoretical) ([1]; ACV alone 0.1 μg/mℓ): (2%)
ACV inhibitory rate (single compound at the same concn., theoretical) ([1]; ACV alone 0.4 μg/mℓ): (8%)
ACV inhibitory rate (single compound at the same concn., theoretical) ([1]; ACV alone 1.3 μg/mℓ): (19%)
ACV inhibitory rate (single compound at the same concn., theoretical) ([1]; ACV alone 1.5 μg/mℓ): (30%)
ACV inhibitory rate (single compound at the same concn., theoretical) ([1]; ACV alone 1.8 μg/mℓ): (36%)
ACV inhibitory rate (single compound at the same concn., theoretical) ([1]; ACV alone 1.9 μg/mℓ): (28%)
ACV inhibitory rate ([1]; ACV alone 2.5 μg/mℓ): 50%
ACV inhibitory rate (single compound at the same concn., theoretical) ([1]; ACV alone 2.7 μg/mℓ): (40%)
ACV inhibitory rate ([1]; ACV alone 3.4 μg/mℓ): 50%
IC50 ([1]; C-OXT-G/ACV series): 2.5 µg/mL
IC50 ([1]; OXT-G/ACV series): 3.4 µg/mL
ACV inhibitory rate (single compound at the same concn., theoretical) ([2]; ACV alone 0.04 μg/mℓ): (2%)
ACV inhibitory rate (single compound at the same concn., theoretical) ([2]; ACV alone 0.08 μg/mℓ): (3%)
ACV inhibitin rate (single compound at the same concn., theoretical) ([2]; ACV alone 0.1 μg/mℓ): (6%)
ACV inhibitory rate (single compound at the same concn., theoretical) ([2]; ACV alone 0.32 μg/mℓ): (12%)
ACV inhibitory rate (single compound at the same concn., theoretical) ([2]; ACV alone 0.42 μg/mℓ): (15%)
ACV inhibitin rate (single compound at the same concn., theoretical) ([2]; ACV alone 0.58 μg/mℓ): (37%)
ACV inhibitin rate ([2]; ACV alone 0.78 μg/mℓ): 50%
ACV inhibitory rate ([2]; ACV alone 1.4 μg/mℓ): 50%
IC50 ([2]; C-OXT-G/ACV series): 0.78 µg/mL
IC50 ([2]; OXT-G/ACV series): 1.4 µg/mL

IC50 ([1]; C-OXT-G/ACV series): 0.74 µg/mL
IC50 ([2]; C-OXT-G/ACV series): 0.3 µg/mL
IC50 ([2]; OXT-G/C-OXT-G series): 0.6 µg/mL
SMILES: Nc1nc2c(ncn2[C@@H]2C[C@H](CO)[C@H]2CO)c(=O)[nH]1 [C-OXT-G, (+)-9-[(1R,2R,3S)-2,3-bis(hydroxymethyl)cyclobutyl]guanine]
C-OXT-G inhibitory rate (single compound at the same concn., theoretical) ([1]; C-OXT-G alone 0.04 μg/mℓ): (3%)
C-OXT-G inhibitory rate (single compound at the same concn., theoretical) ([1]; C-OXT-G alone 0.1 μg/mℓ): (7%)
C-OXT-G inhibitory rate (single compound at the same concn., theoretical) ([1]; C-OXT-G alone 0.3 μg/mℓ): (20%)
C-OXT-G inhibitory rate (single compound at the same concn., theoretical) ([1]; C-OXT-G alone 0.54 μg/mℓ): (36%)
C-OXT-G inhibitory rate ([1]; C-OXT-G alone 0.74 μg/mℓ): 50%
C-OXT-G inhibitory rate (single compound at the same concn., theoretical) ([2]; C-OXT-G alone 0.01 μg/mℓ): (2%)
C-OXT-G inhibitory rate (single compound at the same concn., theoretical) ([2]; C-OXT-G alone 0.04 μg/mℓ): (3%)
C-OXT-G inhibitory rate (single compound at the same concn., theoretical) ([2]; C-OXT-G alone 0.1 μg/mℓ): (8%)
C-OXT-G inhibitory rate (single compound at the same concn., theoretical) ([2]; C-OXT-G alone 0.2 μg/mℓ): (33%)
C-OXT-G inhibitory rate ([2]; C-OXT-G alone 0.3 μg/mℓ): 50%
C-OXT-G inhibitory rate (single compound at the same concn., theoretical) ([2]; C-OXT-G alone 0.4 μg/mℓ): (33.3%)
C-OXT-G inhibitory rate ([2]; C-OXT-G alone 0.60 μg/mℓ): 50%

IC50 ([1]; OXT-G/ACV series): 10 µg/mL
IC50 ([2]; OXT-G/ACV series): 7 µg/mL
IC50 ([2]; OXT-G/C-OXT-G series): 7.3 µg/mL
SMILES: Nc1nc2c(ncn2[C@@H]2O[C@H](CO)[C@H]2CO)c(=O)[nH]1 [OXT-G, 9-(2-deoxy-2-hydroxymethyl-β-D-erythrooxetanosyl)guanine]
OXT-G inhibitory rate (single compound at the same concn., theoretical) ([1]; OXT-G alone 0.4 μg/mℓ): (2%)
OXT-G inhibitory rate (single compound at the same concn., theoretical) ([1]; OXT-G alone 1.0 μg/mℓ): (5%)
OXT-G inhibitory rate (single compound at the same concn., theoretical) ([1]; OXT-G alone 4.0 μg/mℓ): (20%)
OXT-G inhibitory rate ([1]; OXT-G alone 10.0 μg/mℓ): (50%)
OXT-G inhibitory rate (single compound at the same concn., theoretical) ([2]; OXT-G alone 0.1 μg/mℓ): (1%)
OXT-G inhibitory rate (single compound at the same concn., theoretical) ([2]; OXT-G alone 0.4 μg/mℓ): (3%)
OXT-G inhibitory rate (single compound at the same concn., theoretical) ([2]; OXT-G alone 1.0 μg/mℓ): (7%)
OXT-G inhibitory rate (single compound at the same concn., theoretical) ([2]; OXT-G alone 1.7 μg/mℓ): (12%)
OXT-G inhibitory rate (single compound at the same concn., theoretical) ([2]; OXT-G alone 3.0 μg/mℓ): (26%)
OXT-G inhibitory rate (single compound at the same concn., theoretical) ([2]; OXT-G alone 4.0 μg/mℓ): (29%)
OXT-G inhibitory rate (single compound at the same concn., theoretical) ([2]; OXT-G alone 5.4 μg/mℓ): (39%)
OXT-G inhibitory rate ([2]; OXT-G alone 7.0 μg/mℓ): 50%
OXT-G inhibitory rate ([2]; OXT-G alone 7.3 μg/mℓ): 50%
